Patent US7098241B2, “Thiophene hydroxamic acid derivatives” (Hoffmann-La Roche Inc., priority 2002, dated 2006)
Read-outs that look alike come from different tables or passages of the source.

Key:
recombinant HDAC-1 = molecular target: T1, recombinant HDAC-1 (Homo sapiens, UniProt Q13547); experiment: HDAC biochemical quench assay; settings: recombinant HDAC-1 purified from HEK 293 cells, 1 uM peptide substrate, 90 min at room temperature
T1 construct: made in house; host or cells: HEK 293 cells
Description: The function of histone deacetylase (HDAC) is the deacetylation of lysines in e.g. histone H4. A peptide of 17 amino acids derived from histone H4 was labeled with TAMRA at the C-terminus and QSY-7 at the N-terminus and was used as a substrate (TAMRA-first17 aa of histone H4-QSY7). Following deacetylation by HDAC, the enzyme Lys C is able to cleave the peptide after lysine. […] Inhibition of HDAC by compounds results in low signals because Lys C could not cleave the substrate and the quench effect persists.
For dose response curves, 10 concentrations were diluted 1:3 starting at 30 uM. 10 ul compound dilution were put into each well of a 384 well plate. 10 ul HDAC were added (recombinant HDAC-1 purified from HEK 293 cells; enzyme activity has to be assessed for each preparation). 10 ul peptide substrate was added (1 uM final concentration, derived from 1 mM stock solution diluted 1:1000 in test buffer). After 90 min incubation at room temperature, the reaction was stopped by addition of 20 ul test buffer including 3 ug/ml Lys C and 0.075% SDS. After overnight incubation the fluorescence signal of TAMRA was measured (Victor 2 from Wallac, absorption 544 nm, emission 590 nm). The O.D. of DMSO-treated control wells is 100%, the % inhibition of compound treated wells is calculated in relation to 100%. Based on 10 concentrations a IC50 curve is generated by using XL.fit3.
Test buffer used: a mixture of 10 mM Hepes pH8, 10 mM NaCl, 10% Glycerol, 0.005% Triton X100, 0.1 mM EDTA, 0.1 mM TCEP. As plates were used 384 well plates (black, Greiner, 781077).

[1] = system: HT-29 cells (human colon carcinoma cell line); experiment: MTT anti-proliferation assay on HT-29 cells; type: cell-based; settings: 384 well plates, 5 days, read-out: IC50 HT29 384
Description: MTT (3-(4,5-dimethylthiazol-2-yl)-2,5-diphenyl tetrazolium bromide) is widely used for the quantitative determination of cytotoxic effects or in vitro chemosensitivity of tumor cells. The assay is based on the cleavage of the yellow tetrazolium salt (MTT) to purple formazan crystals by metabolic active cells. For details, see Rubinstein, L. V., et al., J. Natl. Cancer Inst. 82 (1990) 1113.
We proceeded as follows: HT-29 cells (human colon carcinoma cell line) were cultivated in RPMI 1640, 2.5% FCS, 2 mM glutamine, 100 u/ml penicillin, 100 ug/ml streptomycin. For the assay the cells were seeded in 384 well plates, 900 cells per well, in the same medium. At the next day, the compounds (dissolved 10 mM in DMSO) were added in various concentrations ranging from 30 uM to 1.5 nM. After 5 days, the MTT assay was done mainly according to the instructions of the manufacturer (Cell proliferation kit I, MTT, from Roche Molecular Biochemicals). In brief: MTT labeling reagent was added to a final concentration of 0.5 mg/ml, added and incubated for 4 hrs at 37° C., 5% CO2. During this incubation time purple formazan crystals are formed. After addition of the solubilization solution (20% SDS in 0.02 M HCl) the plates were incubated overnight at 37° C., 5% CO2. After careful mixing, the plates were measured in Victor 2 (scanning multiwell spectrophotometer, Wallac) at 550 nm.
A decrease in number of living cells results in a decrease in the total metabolic activity in the sample. The decrease directly correlates to the amount of purple color resulting from the solubilization of the purple formazan crystals. Determination of IC50 was done using XL-fit.

T1 sequence (Q13547 whole entry, species assumed): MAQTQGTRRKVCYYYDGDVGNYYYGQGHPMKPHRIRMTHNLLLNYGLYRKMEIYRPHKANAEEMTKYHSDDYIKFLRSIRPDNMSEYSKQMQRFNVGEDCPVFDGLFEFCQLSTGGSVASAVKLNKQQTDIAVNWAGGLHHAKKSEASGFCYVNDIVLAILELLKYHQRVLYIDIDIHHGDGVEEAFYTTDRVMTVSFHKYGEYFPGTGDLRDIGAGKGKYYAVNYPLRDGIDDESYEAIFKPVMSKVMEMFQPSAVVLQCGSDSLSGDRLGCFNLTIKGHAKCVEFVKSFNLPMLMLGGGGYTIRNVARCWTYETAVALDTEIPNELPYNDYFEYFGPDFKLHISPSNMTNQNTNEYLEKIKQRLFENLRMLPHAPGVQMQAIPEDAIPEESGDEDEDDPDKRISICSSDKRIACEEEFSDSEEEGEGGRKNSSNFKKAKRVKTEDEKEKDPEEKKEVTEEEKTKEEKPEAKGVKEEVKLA

IC50 (recombinant HDAC-1) [nM]	IC50 [1] [nM]	IC50 ([1]; Homo sapiens, 120 h) [nM]	Compound
1.79	–	–	COc1cccc([C@H](C)NC(=O)c2ccc(C(=O)NO)s2)c1 [Example 4h, (S)-thiophene-2,5-dicarboxylic acid 2-hydroxyamide 5-{[1-(3-methoxy-phenyl)-ethyl]-amide}]
–	880	–	C[C@H](NC(=O)c1ccc(C(=O)NO)s1)c1ccc(Br)cc1 [Example 4d, (S)-thiophene-2,5-dicarboxylic acid 2-{[1-(4-bromo-phenyl)-ethyl]-amide}5-hydroxyamide]
2.69	–	350	C[C@H](NC(=O)c1ccc(C(=O)NO)s1)c1ccc(C(F)(F)F)cc1 [Example 10d, (S)-thiophene-2,5-dicarboxylic acid 2-hydroxyamide 5-{[1-(4-trifluoromethyl-phenyl)-ethyl]-amide}]
3.19	–	780	CC[C@H](NC(=O)c1ccc(C(=O)NO)s1)c1ccccc1 [Example 4g, (S)-thiophene-2,5-dicarboxylic acid 2-hydroxyamide 5-[(1-phenyl-propyl)-amide]]
1.94	–	–	O=C(NO)c1ccc(C(=O)N[C@H](CN2CCOCC2)c2ccccc2)s1 [Example 10c, (S)-thiophene-2,5-dicarboxylic acid 2-hydroxyamide 5-[(2-morpholin-4-yl-1-phenyl-ethyl)-amide]]
3.82	–	520	C[C@H](NC(=O)c1ccc(C(=O)NO)s1)c1cccs1 [Example 9, (S)-Thiophene-2,5-dicarboxylic Acid 2-hydroxyamide 5-[(1-thiophen-2-yl-ethyl)-amide]]
3.44	–	50	C[C@@H](NC(=O)c1ccc(C(=O)NO)s1)c1ccc(Cl)cc1 [Example 2c, (R)-thiophene-2,5-dicarboxylic acid 2-{[1-(4-chloro-phenyl)-ethyl]-amide}5-hydroxyamide]
1.39	–	580	C[C@H](NC(=O)c1ccc(C(=O)NO)s1)c1ccc(C(C)(C)C)cc1 [Example 10e, (S)-thiophene-2,5-dicarboxylic acid 2-{[1-(4-tert-butyl-phenyl)-ethyl]-amide}5-hydroxyamide]
2.86	–	350	O=C(NO)c1ccc(C(=O)N[C@@H]2CCCc3ccccc32)s1 [Example 2n, (R)-thiophene-2,5-dicarboxylic acid 2-hydroxyamide 5-[(1,2,3,4-tetrahydro-naphthalen-1-yl)-amide]]
–	840	–	C[C@H](NC(=O)c1ccc(C(=O)NO)s1)c1ccccc1 [Example 4a, (S)-thiophene-2,5-dicarboxylic acid 2-hydroxyamide 5-[(1-phenyl-ethyl)-amide]]
3.88	–	80	C[C@@H](NC(=O)c1ccc(C(=O)NO)s1)c1ccc(Br)cc1 [Example 2d, (R)-thiophene-2,5-dicarboxylic acid 2-{[1-(4-bromo-phenyl)-ethyl]-amide}5-hydroxyamide]
2.97	–	–	O=C(NO)c1ccc(C(=O)N[C@H]2CCc3ccccc32)s1 [Example 4m, (S)-thiophene-2,5-dicarboxylic acid 2-hydroxyamide 5-indan-1-ylamide]
4.27	–	630	O=C(NO)c1ccc(C(=O)N[C@@H](CN2CCOCC2)c2ccccc2)s1 [Example 8c, (R)-thiophene-2,5-dicarboxylic acid 2-hydroxyamide 5-[(2-morpholin-4-yl-1-phenyl-ethyl)-amide]]
1.73	–	40	C[C@@H](NC(=O)c1ccc(C(=O)NO)s1)c1cccc2ccccc12 [Example 2e, (R)-thiophene-2,5-dicarboxylic acid 2-hydroxyamide 5-[(1-naphthalen-1-yl-ethyl)-amide]]
3.17	–	580	COC[C@H](NC(=O)c1ccc(C(=O)NO)s1)c1ccccc1 [Example 2l, (R)-thiophene-2,5-dicarboxylic acid 2-hydroxyamide 5-[(2-methoxy-1-phenyl-ethyl)-amide]]
0.58	–	40	O=C(NO)c1ccc(C(=O)N[C@@H](Cc2ccccc2)c2ccccc2)s1 [Example 10f, (S)-thiophene-2,5-dicarboxylic acid 2-[(1,2-diphenyl-ethyl)-amide]5-hydroxyamide]
4.98	–	170	C[C@@H](NC(=O)c1ccc(C(=O)NO)s1)c1ccc(F)cc1 [Example 2b, (R)-thiophene-2,5-dicarboxylic acid 2-{[1-(4-fluoro-phenyl)-ethyl]-amide}5-hydroxyamide]
1.38	–	300	O=C(NO)c1ccc(C(=O)N[C@@H]2CCc3ccccc32)s1 [Example 2m, (R)-thiophene-2,5-dicarboxylic acid 2-hydroxyamide 5-indan-1-ylamide]
3.41	–	190	Cc1ccc([C@@H](C)NC(=O)c2ccc(C(=O)NO)s2)cc1 [Example 2a, (R)-thiophene-2,5-dicarboxylic acid 2-hydroxyamide 5-[(1-p-tolyl-ethyl)-amide]]
1.08	–	10	C[C@@H](NC(=O)c1ccc(C(=O)NO)s1)c1ccc(C(C)(C)C)cc1 [Example 8e, (R)-thiophene-2,5-dicarboxylic acid 2-{[1-(4-tert-butyl-phenyl)-ethyl]-amide}5-hydroxyamide]
1.33	–	40	O=C(NO)c1ccc(C(=O)N[C@H](Cc2ccccc2)c2ccccc2)s1 [Example 8f, (R)-thiophene-2,5-dicarboxylic acid 2-[(1,2-diphenyl-ethyl)-amide]5-hydroxyamide]
4.04	–	160	COC[C@@H](NC(=O)c1ccc(C(=O)NO)s1)c1ccccc1 [Example 4l, (S)-thiophene-2,5-dicarboxylic acid 2-hydroxyamide 5-[(2-methoxy-1-phenyl-ethyl)-amide]]
1.26	–	30	C[C@@H](NC(=O)c1ccc(C(=O)NO)s1)c1ccc(C(F)(F)F)cc1 [Example 8d, (R)-thiophene-2,5-dicarboxylic acid 2-hydroxyamide 5-{[1-(4-trifluoromethyl-phenyl)-ethyl]-amide}]
1.79	–	50	COc1ccc([C@@H](C)NC(=O)c2ccc(C(=O)NO)s2)cc1 [Example 2i, (R)-thiophene-2,5-dicarboxylic acid 2-hydroxyamide 5-{[1-(4-methoxy-phenyl)-ethyl]-amide}]
1.66	–	60	C[C@@H](NC(=O)c1ccc(C(=O)NO)s1)c1cccs1 [Example 7, (R)-Thiophene-2,5-dicarboxylic Acid 2-hydroxyamide 5-[(1-thiophen-2-yl-ethyl)-amide]]
2.6	–	560	COc1ccc([C@H](C)NC(=O)c2ccc(C(=O)NO)s2)cc1 [Example 4i, (S)-thiophene-2,5-dicarboxylic acid 2-hydroxyamide 5-{[1-(4-methoxy-phenyl)-ethyl]-amide}]
–	840	–	C[C@H](NC(=O)c1ccc(C(=O)NO)s1)c1ccc(Cl)cc1 [Example 4c, (S)-thiophene-2,5-dicarboxylic acid 2-{[1-(4-chloro-phenyl)-ethyl]-amide}5-hydroxyamide]
–	920	–	C[C@H](NC(=O)c1ccc(C(=O)NO)s1)c1ccc2ccccc2c1 [Example 4f, (S)-thiophene-2,5-dicarboxylic acid 2-hydroxyamide 5-[(1-naphthalen-2-yl-ethyl)-amide]]
